Series [1] has as its system Respiratory syncytial virus. As to the kind of experiment: Antiviral activity against RSV A2 ATCC VR-1540 infected in HEp-2 cells assessed as inhibition of virus induced cytopathic effect measured after 72 hrs. The series is classed as functional, organism-based. The settings on record: human respiratory syncytial virus, A2 ATCC VR-1540, HEp-2, 72 h. Background: Cytopathic effects are the visible damage that an infection or toxin causes in cultured cells.

Series [2] can be described thus: Cytotoxicity against HEp-2 cells. Particulars: human. The class given is toxicity, cell-based.

The structures appear in SMILES notation.

Consider `CC1=C[C@@](C)(O)[C@H](/C(C)=C/C=C/C=C/C=C/C=C/C2(C)C3OC(=O)C2(C)C(=O)C3C)O[C@H]1C` (stereo partly drawn), for which, in series [1], the IC50 (commonly the concentration at which inhibition is half-maximal) amounted to 12 µM. Also, the CC50 (usually the concentration at which the toxic effect on the cells reaches its halfway point) in series [2] was greater than 100 µM.

Regarding `CC1=C[C@](C)(O)[C@H](C)O[C@@H]1/C(C)=C/C=C/C=C/C=C/C=C/C1(C)C2OC(=O)C1(C)C(=O)C2C` (stereo partly drawn), the IC50 in series [1] is 6.3 µM. The CC50 in series [2] is greater than 100 µM.

On to `CC1=C[C@@](C)(O)[C@@H](/C(C)=C/C=C/C=C/C=C/C=C/C2(C)C3OC(=O)C2(C)C(=O)C3C)O[C@H]1C` (stereo partly drawn), for which, in series [1], the IC50 amounted to 25 µM. The same compound came in with a CC50 in series [2] greater than 100 µM.

Take `NC(=O)c1ncn([C@@H]2O[C@H](CO)[C@@H](O)[C@H]2O)n1` [RIBAVIRIN]: the IC50 in series [1] was determined as 15 µM. Also, in series [2], the CC50 was greater than 100 µM.

The record behind these values is ChEMBL document CHEMBL5634164, “Absolute Configuration of Oxabornyl Polyenes Prugosenes A1-A3 and Structural Revision of Prugosene A2” (J Nat Prod, 2024).
